The compounds below were run against T1, Dimer of Gag-Pol polyprotein [489-587] (Human immunodeficiency virus 1, UniProt P12497) (assay: Protease Inhibition Assay).
T1 construct: 489-587
Procedure: The inhibitory activities of the compounds toward HIV-1 PR were determined by sodium dodecyl sulfate-polyacrylamide gel electrophoresis (SDS-PAGE) assay. The IC50 values of active compounds were determined using the partially purified protease and the synthetic substrate Ac-Ser-Gln-AsnTyr-Pro-Ile-Val-NH2.

| Structure (SMILES) | IC50 |
| --- | --- |
| Cc1ccc(C(=O)N[C@@H](Cc2ccccc2)[C@H](O)C(=O)N2C[C@@H](Cl)C[C@H]2C(=O)NC(C)(C)C)c(C)c1O | 8.2 nM |
| Cc1c(O)cc(F)cc1C(=O)N[C@@H](Cc1ccccc1)[C@H](O)C(=O)N1C[C@@H](Cl)C[C@H]1C(=O)NC(C)(C)C | 1.7 nM |
| Cc1ccc(C(=O)N[C@@H](Cc2cccc(C(F)(F)F)c2)[C@H](O)C(=O)N2C[C@@H](Cl)C[C@H]2C(=O)NC(C)(C)C)c(C)c1O | 3.5 nM |
| Cc1cc(O)c(C)c(C(=O)N[C@@H](Cc2cccc(C(F)(F)F)c2)[C@H](O)C(=O)N2C[C@@H](Cl)C[C@H]2C(=O)NC(C)(C)C)c1 | 1.9 nM |
| Cc1ccc(O)c(C)c1C(=O)N[C@@H](Cc1ccc(C(F)(F)F)cc1)[C@H](O)C(=O)N1C[C@@H](Cl)C[C@H]1C(=O)NC(C)(C)C | 3.9 nM |
| Cc1cccc(C[C@H](NC(=O)c2cc(C)cc(O)c2C)[C@H](O)C(=O)N2C[C@@H](Cl)C[C@H]2C(=O)NC(C)(C)C)c1 | 1.3 nM |
| Cc1cccc(C[C@H](NC(=O)c2c(C)ccc(O)c2C)[C@H](O)C(=O)N2C[C@@H](Cl)C[C@H]2C(=O)NC(C)(C)C)c1 | 3.4 nM |
| Cc1ccc(C[C@H](NC(=O)c2c(C)ccc(O)c2C)[C@H](O)C(=O)N2C[C@@H](Cl)C[C@H]2C(=O)NC(C)(C)C)cc1 | 3.6 nM |
| Cc1ccc(C(=O)N[C@@H](Cc2ccc3ccccc3c2)[C@H](O)C(=O)N2C[C@@H](Cl)C[C@H]2C(=O)NC(C)(C)C)c(C)c1O | 3.2 nM |
| Cc1cc(O)c(C)c(C(=O)N[C@@H](Cc2ccc3sccc3c2)[C@H](O)C(=O)N2C[C@@H](Cl)C[C@H]2C(=O)NC(C)(C)C)c1 [(2S,4S)-1-[(2S,3S)-4-(1-benzothiophen-5-yl)-2-hydroxy-3-[(3-hydroxy-2,5-dimethylphenyl)formamido]butanoyl]-N-tert-butyl-4-chloropyrrolidine-2-carboxamide] | 1.5 nM |
| Cc1c(O)cccc1C(=O)N[C@@H](Cc1ccc2sccc2c1)[C@H](O)C(=O)N1C[C@@H](Cl)C[C@H]1C(=O)NC(C)(C)C [(2S,4S)-1-[(2S,3S)-4-(1-benzothiophen-5-yl)-2-hydroxy-3-[(3-hydroxy-2-methylphenyl)formamido]butanoyl]-N-tert-butyl-4-chloropyrrolidine-2-carboxamide] | 1.4 nM |
| Cc1ccccc1C[C@H](NC(=O)c1ccc(C)c(O)c1C)[C@H](O)C(=O)N1C[C@@H](Cl)C[C@H]1C(=O)NC(C)(C)C [(2S,4S)-N-tert-butyl-4-chloro-1-[(2S,3S)-2-hydroxy-3-[(3-hydroxy-2,4-dimethylphenyl)formamido]-4-(2-methylphenyl)butanoyl]pyrrolidine-2-carboxamide] | 49.9 nM |
| Cc1ccc(C[C@H](NC(=O)c2ccc(C)c(O)c2C)[C@H](O)C(=O)N2C[C@@H](Cl)C[C@H]2C(=O)NC(C)(C)C)cc1 [(2S,4S)-N-tert-butyl-4-chloro-1-[(2S,3S)-2-hydroxy-3-[(3-hydroxy-2,4-dimethylphenyl)formamido]-4-(4-methylphenyl)butanoyl]pyrrolidine-2-carboxamide] | 8.6 nM |
| Cc1ccc(C(=O)N[C@@H](Cc2ccc(C(F)(F)F)cc2)[C@H](O)C(=O)N2C[C@@H](Cl)C[C@H]2C(=O)NC(C)(C)C)c(C)c1O [(2S,4S)-N-tert-butyl-4-chloro-1-[(2S,3S)-2-hydroxy-3-[(3-hydroxy-2,4-dimethylphenyl)formamido]-4-[4-(trifluoromethyl)phenyl]butanoyl]pyrrolidine-2-carboxamide] | 6.3 nM |
| Cc1cc(O)c(C)c(C(=O)N[C@@H](Cc2ccc3ccccc3c2)[C@H](O)C(=O)N2C[C@@H](Cl)C[C@H]2C(=O)NC(C)(C)C)c1 [(2S,4S)-N-tert-butyl-4-chloro-1-[(2S,3S)-2-hydroxy-3-[(3-hydroxy-2,5-dimethylphenyl)formamido]-4-(naphthalen-2-yl)butanoyl]pyrrolidine-2-carboxamide] | 0.8 nM |
| Cc1cc(O)c(C)c(C(=O)N[C@@H](Cc2ccccc2)[C@H](O)C(=O)N2C[C@@H](Cl)C[C@H]2C(=O)NC(C)(C)C)c1 [(2S,4S)-N-tert-butyl-4-chloro-1-[(2S,3S)-2-hydroxy-3-[(3-hydroxy-2,5-dimethylphenyl)formamido]-4-phenylbutanoyl]pyrrolidine-2-carboxamide] | 1.3 nM |

| Structure (SMILES) | IC50 |
| --- | --- |
| Cc1ccccc1C[C@H](NC(=O)c1c(C)ccc(O)c1C)[C@H](O)C(=O)N1C[C@@H](Cl)C[C@H]1C(=O)NC(C)(C)C [(2S,4S)-N-tert-butyl-4-chloro-1-[(2S,3S)-2-hydroxy-3-[(3-hydroxy-2,6-dimethylphenyl)formamido]-4-(2-methylphenyl)butanoyl]pyrrolidine-2-carboxamide] | 34.3 nM |
| Cc1ccc(O)c(C)c1C(=O)N[C@@H](Cc1ccc2ccccc2c1)[C@H](O)C(=O)N1C[C@@H](Cl)C[C@H]1C(=O)NC(C)(C)C [(2S,4S)-N-tert-butyl-4-chloro-1-[(2S,3S)-2-hydroxy-3-[(3-hydroxy-2,6-dimethylphenyl)formamido]-4-(naphthalen-2-yl)butanoyl]pyrrolidine-2-carboxamide] | 2.8 nM |
| Cc1ccc(O)c(C)c1C(=O)N[C@@H](Cc1cccc(C(F)(F)F)c1)[C@H](O)C(=O)N1C[C@@H](Cl)C[C@H]1C(=O)NC(C)(C)C [(2S,4S)-N-tert-butyl-4-chloro-1-[(2S,3S)-2-hydroxy-3-[(3-hydroxy-2,6-dimethylphenyl)formamido]-4-[3-(trifluoromethyl)phenyl]butanoyl]pyrrolidine-2-carboxamide] | 4.6 nM |
| Cc1ccccc1C[C@H](NC(=O)c1cccc(O)c1C)[C@H](O)C(=O)N1C[C@@H](Cl)C[C@H]1C(=O)NC(C)(C)C [(2S,4S)-N-tert-butyl-4-chloro-1-[(2S,3S)-2-hydroxy-3-[(3-hydroxy-2-methylphenyl)formamido]-4-(2-methylphenyl)butanoyl]pyrrolidine-2-carboxamide] | 4.5 nM |
| Cc1c(O)cccc1C(=O)N[C@@H](Cc1ccc(O)cc1)[C@H](O)C(=O)N1C[C@@H](Cl)C[C@H]1C(=O)NC(C)(C)C [(2S,4S)-N-tert-butyl-4-chloro-1-[(2S,3S)-2-hydroxy-3-[(3-hydroxy-2-methylphenyl)formamido]-4-(4-hydroxyphenyl)butanoyl]pyrrolidine-2-carboxamide] | 1.3 nM |
| Cc1c(O)cccc1C(=O)N[C@@H](Cc1ccc(C(F)(F)F)cc1)[C@H](O)C(=O)N1C[C@@H](Cl)C[C@H]1C(=O)NC(C)(C)C [(2S,4S)-N-tert-butyl-4-chloro-1-[(2S,3S)-2-hydroxy-3-[(3-hydroxy-2-methylphenyl)formamido]-4-[4-(trifluoromethyl)phenyl]butanoyl]pyrrolidine-2-carboxamide] | 0.6 nM |
| Cc1c(O)cc(F)cc1C(=O)N[C@@H](Cc1ccc2ccccc2c1)[C@H](O)C(=O)N1C[C@@H](Cl)C[C@H]1C(=O)NC(C)(C)C [(2S,4S)-N-tert-butyl-4-chloro-1-[(2S,3S)-3-[(5-fluoro-3-hydroxy-2-methylphenyl)formamido]-2-hydroxy-4-(naphthalen-2-yl)butanoyl]pyrrolidine-2-carboxamide] | 1.2 nM |
| Cc1c(O)cccc1C(=O)N[C@@H](Cc1ccc(F)cc1F)[C@H](O)C(=O)N1C[C@@H](Cl)C[C@H]1C(=O)NC(C)(C)C [(2S,4S)-N-tert-butyl-4-chloro-1-[(2S,3S)-4-(2,4-difluorophenyl)-2-hydroxy-3-[(3-hydroxy-2-methylphenyl)formamido]butanoyl]pyrrolidine-2-carboxamide] | 1.6 nM |
| Cc1c(O)cccc1C(=O)N[C@@H](Cc1ccccc1F)[C@H](O)C(=O)N1C[C@@H](Cl)C[C@H]1C(=O)NC(C)(C)C [(2S,4S)-N-tert-butyl-4-chloro-1-[(2S,3S)-4-(2-fluorophenyl)-2-hydroxy-3-[(3-hydroxy-2-methylphenyl)formamido]butanoyl]pyrrolidine-2-carboxamide] | 0.7 nM |
| Cc1c(O)cccc1C(=O)N[C@@H](Cc1ccc(F)c(F)c1)[C@H](O)C(=O)N1C[C@@H](Cl)C[C@H]1C(=O)NC(C)(C)C [(2S,4S)-N-tert-butyl-4-chloro-1-[(2S,3S)-4-(3,4-difluorophenyl)-2-hydroxy-3-[(3-hydroxy-2-methylphenyl)formamido]butanoyl]pyrrolidine-2-carboxamide] | 0.8 nM |
| Cc1ccc(C[C@H](NC(=O)c2cccc(O)c2C)[C@H](O)C(=O)N2C[C@@H](Cl)C[C@H]2C(=O)NC(C)(C)C)cc1C [(2S,4S)-N-tert-butyl-4-chloro-1-[(2S,3S)-4-(3,4-dimethylphenyl)-2-hydroxy-3-[(3-hydroxy-2-methylphenyl)formamido]butanoyl]pyrrolidine-2-carboxamide] | 1.2 nM |
| Cc1c(O)cccc1C(=O)N[C@@H](Cc1cccc(F)c1)[C@H](O)C(=O)N1C[C@@H](Cl)C[C@H]1C(=O)NC(C)(C)C [(2S,4S)-N-tert-butyl-4-chloro-1-[(2S,3S)-4-(3-fluorophenyl)-2-hydroxy-3-[(3-hydroxy-2-methylphenyl)formamido]butanoyl]pyrrolidine-2-carboxamide] | 0.6 nM |
| Cc1c(O)cccc1C(=O)N[C@@H](Cc1ccc(F)cc1)[C@H](O)C(=O)N1C[C@@H](Cl)C[C@H]1C(=O)NC(C)(C)C [(2S,4S)-N-tert-butyl-4-chloro-1-[(2S,3S)-4-(4-fluorophenyl)-2-hydroxy-3-[(3-hydroxy-2-methylphenyl)formamido]butanoyl]pyrrolidine-2-carboxamide] | 0.9 nM |
| Cc1cccc(C[C@H](NC(=O)c2ccc(C)c(O)c2C)[C@H](O)C(=O)N2C[C@@H](Cl)C[C@H]2C(=O)NC(C)(C)C)c1 [(3-Hydroxy-2,4-dimethylbenzoyl)-(2(S)-hydroxy-3(S)-amino-4-m-tolylbutanoyl)-4(S)-Cl-Pro-NH-t-Bu] | 2.5 nM |
| Cc1cc(O)c(C)c(C(=O)N[C@@H](Cc2cc(F)cc(F)c2)[C@H](O)C(=O)N2C[C@@H](Cl)C[C@H]2C(=O)NC(C)(C)C)c1 [(3-Hydroxy-2,5-dimethylbenzoyl)-{2(S)-hydroxy-3(S)-amino-4-(3,5-difluoro)-phenylbutanoyl}-4(S)-Cl-Pro-NH-t-Bu] | 1.2 nM |
| Cc1cc(O)c(C)c(C(=O)N[C@@H](Cc2ccc(-c3ccccc3)cc2)[C@H](O)C(=O)N2C[C@@H](Cl)C[C@H]2C(=O)NC(C)(C)C)c1 [(3-Hydroxy-2,5-dimethylbenzoyl)-{2(S)-hydroxy-3(S)-amino-4-(4-phenyl)-phenylbutanoyl}-4(S)-Cl-Pro-NH-t-Bu] | 1.3 nM |

— BindingDB's records for doi:10.1016/s0968-0896(99)00127-3 (Sankyo, 1999)
